Structures are written as SMILES.

The record followed here is ChEMBL document CHEMBL3808305, “Discovery of fused tricyclic core containing HCV NS5A inhibitors with pan-genotype activity” (Bioorg Med Chem Lett, 2016).

The test system of data set [1] is Hepatitis C virus. The experiment in a line: Antiviral activity against HCV genotype 1b assessed as decrease in HCV replicon RNA replication after 3 days by taqman assay based cell based replicon method. The conditions noted are these: 72 h. The data set is classed as functional, organism-based, Hepacivirus hominis. On the technique in general: A replicon is a self-replicating genome or part of one, used to study replication in cells.

For data set [2], the system named is Hepatitis C virus. Kind of data set: Antiviral activity against HCV genotype 2a assessed as decrease in HCV replicon RNA replication after 3 days by taqman assay based cell based replicon method. The note with it: 72 h. The data set is classed as functional, organism-based, Hepacivirus hominis.
For data set [3], the system named is Hepatitis C virus. The experiment in a line: Antiviral activity against HCV genotype 1a assessed as decrease in HCV replicon RNA replication after 3 days by taqman assay based cell based replicon method. The conditions noted are these: subtype 1a, 72 h. The format is functional, organism-based, Hepacivirus hominis.
Data set [4] relates to Hepatitis C virus. The experiment in a line: Antiviral activity against HCV genotype 1a expressing NS5A Y93H mutant assessed as decrease in HCV replicon RNA replication after 3 days by taqman assay based cell based replicon method. The conditions noted are these: subtype 1a, 72 h. The data set is classed as functional, organism-based, Hepacivirus hominis.
Data set [5] has as its system Hepatitis C virus. Kind of data set: Antiviral activity against HCV genotype 3a assessed as decrease in HCV replicon RNA replication after 3 days by taqman assay based cell based replicon method. The format is functional, organism-based, Hepacivirus hominis. The note with it: 72 h.
Data set [6] concerns Hepatitis C virus. The experiment in a line: Antiviral activity against HCV genotype 1b assessed as decrease in HCV replicon RNA replication after 3 days in presence of 10% FBS by taqman assay based cell based replicon method. The format is functional, organism-based, Hepacivirus hominis. The note with it: 72 h.
The subject of data set [7] is Hepatitis C virus. Kind of data set: Antiviral activity against HCV genotype 1a assessed as decrease in HCV replicon RNA replication after 3 days in presence of 10% FBS by taqman assay based cell based replicon method. The data set is classed as functional, organism-based, Hepacivirus hominis. The conditions noted are these: subtype 1a, 72 h.
For data set [8], the system named is Hepatitis C virus. Kind of data set: Antiviral activity against HCV genotype 2a assessed as decrease in HCV replicon RNA replication after 3 days in presence of 10% FBS by taqman assay based cell based replicon method. The format is functional, organism-based, Hepacivirus hominis. The note with it: 72 h.
A short description of data set [9]: Clearance in Sprague-Dawley rat at 10 mg/kg, po or 2 mg/kg, iv. The data set is classed as ADME, organism-based. The note with it: in vivo.
The nature of data set [10]: AUC in Sprague-Dawley rat at 10 mg/kg, po. The format is ADME, organism-based. The note with it: in vivo.
Data set [11] is described as follows: Oral bioavailability in Sprague-Dawley rat at 10 mg/kg. The data set is classed as ADME, organism-based. The conditions noted are these: in vivo.
Data set [12] can be described thus: Half life in Sprague-Dawley rat at 10 mg/kg, po or 2 mg/kg, iv. The note with it: in vivo. The data set is classed as ADME, organism-based.

Regarding `COC(=O)N[C@H](C(=O)N1CCC[C@H]1c1ncc(-c2ccc3nc4cc(-c5cnc([C@@H]6CCCN6C(=O)[C@@H](NC(=O)OC)C(C)C)[nH]5)ccc4cc3c2)[nH]1)C(C)C`, the EC50 (commonly the concentration needed to bring the measured effect to its halfway point) was determined as 0.01 nM in data set [1], 0.04 nM in data set [2], 0.05 nM in data set [3] and 1050 nM in data set [4].
On to `COC(=O)N[C@H](C(=O)N1CCC[C@H]1c1ncc(-c2ccc3c(Cl)c4cc(-c5cnc([C@@H]6CCCN6C(=O)[C@@H](NC(=O)OC)C(C)C)[nH]5)ccc4cc3c2)[nH]1)C(C)C`, for which the EC50 in [1] amounted to 0.003 nM; in data set [2] it was 0.01 nM; in data set [5], 0.6 nM; in data set [3], 0.05 nM; in data set [4], 66 nM.
As to `COC(=O)N[C@H](C(=O)N1CCC[C@H]1c1ncc(-c2ccc3c(C#N)c4cc(-c5cnc([C@@H]6CCCN6C(=O)[C@@H](NC(=O)OC)C(C)C)[nH]5)ccc4nc3c2)[nH]1)C(C)C`, the EC50 is 0.01 nM in data set [6], 0.3 nM in data set [7] and 1 nM in data set [8].
For `COC(=O)N[C@H](C(=O)N1CCC[C@H]1c1ncc(-c2ccc3c(c2)C=Nc2cc(-c4cnc([C@@H]5CCCN5C(=O)[C@@H](NC(=O)OC)C(C)C)[nH]4)ccc2O3)[nH]1)C(C)C`, the EC50 stood at 0.5 nM in data set [6], 40 nM in data set [7] and 55 nM in [8].
Turning to `COC(=O)N[C@H](C(=O)N1CCC[C@H]1c1ncc(-c2ccc3c(c2)Oc2ccc(-c4cnc([C@@H]5CCCN5C(=O)[C@@H](NC(=O)OC)C(C)C)[nH]4)cc2C3C)[nH]1)C(C)C` (some centres not stated), the EC50 in data set [1] amounted to 0.009 nM; in data set [2] it was 0.004 nM; in [5] it was 0.08 nM; in data set [3], 0.05 nM.
As for `COC(=O)N[C@H](C(=O)N1CCC[C@H]1c1ncc(-c2ccc3c(=O)c4cc(-c5cnc([C@@H]6CCCN6C(=O)[C@@H](NC(=O)OC)C(C)C)[nH]5)ccc4oc3c2)[nH]1)C(C)C`, the 50% effective concentration (EC50) in [1] was determined as 0.002 nM; in [2] it was 0.1 nM; in data set [3] it was 0.01 nM; in data set [4], 1730 nM.
In [9], `COC(=O)N[C@H](C(=O)N1CCC[C@H]1c1ncc(-c2ccc3c(c2)Oc2ccc(-c4cnc([C@@H]5CCCN5C(=O)[C@@H](NC(=O)OC)C(C)C)[nH]4)cc2C3(C)C)[nH]1)C(C)C` returned a clearance of 19 mL/min/kg. The concentration giving a half-maximal response (EC50) is 0.005 nM in [1]; below 0.02 nM in data set [2]; 0.3 nM in data set [5]; 0.02 nM in [3]; 130 nM in data set [4]. Moreover, the AUC (as a rule, concentration integrated over time) in data set [10] turned out to be 2.3 µM·h. In addition, the bioavailability (usually dose-corrected exposure relative to a reference, in per cent) in data set [11] worked out at 39%. Besides, the half-life (commonly the time in which the quantity being followed falls by half) in data set [12] was 1.6 h.
For the molecule `CCCC/C=C1/c2ccc(-c3cnc([C@@H]4CCCN4C(=O)[C@@H](NC(=O)OC)C(C)C)[nH]3)cc2Oc2ccc(-c3cnc([C@@H]4CCCN4C(=O)[C@@H](NC(=O)OC)C(C)C)[nH]3)cc21`, the EC50 in data set [1] was 0.006 nM; in data set [2], 0.05 nM; in data set [5], 0.4 nM; in data set [3], above 0.1 nM; in data set [4] it was 260 nM.
The corresponding values for `COC(=O)N[C@H](C(=O)N1CCC[C@H]1c1ncc(-c2ccc3c(c2)Oc2ccc(-c4cnc([C@@H]5CCCN5C(=O)[C@@H](NC(=O)OC)C(C)C)[nH]4)cc2S3(=O)=O)[nH]1)C(C)C` are 0.06 nM, 0.8 nM, 16 nM, above 1 nM and 2380 nM.
With `COC(=O)N[C@H](C(=O)N1CCC[C@H]1c1ncc(-c2ccc3cc4cc(-c5cnc([C@@H]6CCCN6C(=O)[C@@H](NC(=O)OC)C(C)C)[nH]5)ccc4cc3c2)[nH]1)C(C)C`, the clearance in data set [9] came to 7.7 mL/min/kg. Besides, the EC50 in data set [1] was 0.001 nM; in [2] it was 0.005 nM; in [5] it was 0.06 nM; in data set [3] it was 0.006 nM; in data set [4], 87 nM. The same molecule returned an area under the curve (AUC) in data set [10] of 13 µM·h. In data set [11], this molecule returned a bioavailability of 46%. Also, in [12], the half-life was 3 h.
Turning to `COC(=O)N[C@H](C(=O)N1CCC[C@H]1c1ncc(-c2ccc3c(c2)C=Nc2ccc(-c4cnc([C@@H]5CCCN5C(=O)[C@@H](NC(=O)OC)C(C)C)[nH]4)cc2O3)[nH]1)C(C)C`, the figures for the EC50 in [6], in [7] and in data set [8] were 0.06 nM, 220 nM and 55 nM, respectively.
As for `COC(=O)N[C@H](C(=O)N1CCC[C@H]1c1ncc(-c2ccc3c(c2)Oc2ccc(-c4cnc([C@@H]5CCCN5C(=O)[C@@H](NC(=O)OC)C(C)C)[nH]4)cc2N3c2ccccc2)[nH]1)C(C)C`, the EC50 in data set [6] was 0.008 nM; in data set [7], 5 nM; in data set [8], 3 nM.
For the molecule `C/C=C1/c2ccc(-c3cnc([C@@H]4CCCN4C(=O)[C@@H](NC(=O)OC)C(C)C)[nH]3)cc2Oc2ccc(-c3cnc([C@@H]4CCCN4C(=O)[C@@H](NC(=O)OC)C(C)C)[nH]3)cc21`, the EC50 in data set [1] came out at 0.007 nM; in [2], 0.03 nM; in data set [5], 0.4 nM; in [3], 0.06 nM; in data set [4], 9 nM.
Turning to `COC(=O)N[C@H](C(=O)N1CCC[C@H]1c1ncc(-c2ccc3c(C)c4cc(-c5cnc([C@@H]6CCCN6C(=O)[C@@H](NC(=O)OC)C(C)C)[nH]5)ccc4cc3c2)[nH]1)C(C)C`, the concentration for a half-maximal effect (EC50) in data set [1] was determined as 0.005 nM; in data set [2] it was 0.005 nM; in data set [5] it was 0.5 nM; in data set [3], 0.02 nM; in data set [4] it was 42 nM.
In the case of `CCC1c2ccc(-c3cnc([C@@H]4CCCN4C(=O)[C@@H](NC(=O)OC)C(C)C)[nH]3)cc2Oc2ccc(-c3cnc([C@@H]4CCCN4C(=O)[C@@H](NC(=O)OC)C(C)C)[nH]3)cc21` (some centres not stated), the EC50 worked out at 0.004 nM in data set [1]; 0.005 nM in data set [2]; 0.07 nM in [5]; 0.02 nM in data set [3]; 24 nM in data set [4].
In the case of `COC(=O)N[C@H](C(=O)N1CCC[C@H]1c1ncc(-c2ccc3c(c2)NC(=O)c2cc(-c4cnc([C@@H]5CCCN5C(=O)[C@@H](NC(=O)OC)C(C)C)[nH]4)ccc2O3)[nH]1)C(C)C`, the EC50 in [6] is 40 nM; in data set [7], 950 nM; in data set [8] it was above 1000 nM.
Take `COC(=O)N[C@H](C(=O)N1CCC[C@H]1c1ncc(-c2ccc3c(c2)C(=O)c2ccc(-c4cnc([C@@H]5CCCN5C(=O)[C@@H](NC(=O)OC)C(C)C)[nH]4)cc2C3=O)[nH]1)C(C)C`: the EC50 in data set [1] was 0.007 nM; in [2] it was 0.7 nM; in data set [3] it was 0.09 nM; in data set [4], 35 nM.
With `COC(=O)N[C@H](C(=O)N1CCC[C@H]1c1ncc(-c2ccc3c(c2)NC(=O)c2ccc(-c4cnc([C@@H]5CCCN5C(=O)[C@@H](NC(=O)OC)C(C)C)[nH]4)cc2O3)[nH]1)C(C)C`, the EC50 was 0.2 nM in [6], 145 nM in data set [7] and 310 nM in data set [8].
For `COC(=O)N[C@H](C(=O)N1CCC[C@H]1c1ncc(-c2ccc3nc4cc(-c5cnc([C@@H]6CCCN6C(=O)[C@@H](NC(=O)OC)C(C)C)[nH]5)ccc4nc3c2)[nH]1)C(C)C`, the EC50 is 0.06 nM in data set [1]; 0.1 nM in [2]; 0.2 nM in data set [5]; 0.06 nM in data set [3]; 61 nM in data set [4].
